Measurements from PMC6199309, “A therapeutic approach to pantothenate kinase associated neurodegeneration” (Nature Communications, 2018).

Legend:
BMPR1A = target: T1, BMPR1A (Homo sapiens, UniProt P36894); experiment: KINOMEscan; type: binding; details: read-out: %Ctrl @ 10000nM
T1 construct: purchased DiscoverX KINOMEscan

MARK3 = target: T2, MARK3 (Homo sapiens, UniProt P27448); experiment: KINOMEscan; type: binding; details: read-out: %Ctrl @ 10000nM
T2 construct: purchased DiscoverX KINOMEscan

[1] = target: T3, RPS6KA4(Kin.Dom.1-N-terminal) (Homo sapiens, UniProt O75676); experiment: KINOMEscan; type: binding; details: read-out: %Ctrl @ 10000nM
T3 construct: RPS6KA4(Kin.Dom.1-N-terminal); purchased DiscoverX KINOMEscan

YANK3 = target: T4, YANK3 (Homo sapiens, UniProt Q86UX6); experiment: KINOMEscan; type: binding; details: read-out: %Ctrl @ 10000nM
T4 construct: purchased DiscoverX scanMAX; host or cells: E. coli BL21-derived host (T7 phage) or HEK-293

PKAC-alpha = target: T5, PKAC-alpha (Homo sapiens, UniProt P17612); experiment: KINOMEscan; type: binding; details: read-out: %Ctrl @ 10000nM
T5 construct: purchased DiscoverX KINOMEscan

EGFR(G719C) = target: T6, EGFR(G719C) (Homo sapiens, UniProt P00533, G719C); experiment: KINOMEscan; type: binding; details: read-out: %Ctrl @ 10000nM
T6 construct: purchased DiscoverX KINOMEscan

IKK-beta = target: T7, IKK-beta (Homo sapiens, UniProt O14920); experiment: KINOMEscan; type: binding; details: read-out: %Ctrl @ 10000nM
T7 construct: purchased DiscoverX KINOMEscan

MELK = target: T8, MELK (Homo sapiens, UniProt Q14680); experiment: KINOMEscan; type: binding; details: read-out: %Ctrl @ 10000nM
T8 construct: purchased DiscoverX KINOMEscan

FLT3(R834Q) = target: T9, FLT3(R834Q) (Homo sapiens, UniProt P36888, R834Q); experiment: KINOMEscan; type: binding; details: read-out: %Ctrl @ 10000nM
T9 construct: purchased DiscoverX KINOMEscan

EGFR = target: T10, EGFR (Homo sapiens, UniProt P00533); experiment: KINOMEscan; type: binding; details: read-out: %Ctrl @ 10000nM
T10 construct: purchased DiscoverX KINOMEscan

TAK1 = target: T11, TAK1 (Homo sapiens, UniProt O43318); experiment: KINOMEscan; type: binding; details: read-out: %Ctrl @ 10000nM
T11 construct: purchased DiscoverX KINOMEscan

RET(V804L) = target: T12, RET(V804L) (Homo sapiens, UniProt P07949, V804L); experiment: KINOMEscan; type: binding; details: read-out: %Ctrl @ 10000nM
T12 construct: purchased DiscoverX KINOMEscan

FES = target: T13, FES (Homo sapiens, UniProt P07332); experiment: KINOMEscan; type: binding; details: read-out: %Ctrl @ 10000nM
T13 construct: purchased DiscoverX KINOMEscan

ROCK1 = target: T14, ROCK1 (Homo sapiens, UniProt Q13464); experiment: KINOMEscan; type: binding; details: read-out: %Ctrl @ 10000nM
T14 construct: purchased DiscoverX KINOMEscan

ERK1 = target: T15, ERK1 (Homo sapiens, UniProt P27361); experiment: KINOMEscan; type: binding; details: read-out: %Ctrl @ 10000nM
T15 construct: purchased DiscoverX KINOMEscan

KIT(D816H) = target: T16, KIT(D816H) (Homo sapiens, UniProt P10721, D816H); experiment: KINOMEscan; type: binding; details: read-out: %Ctrl @ 10000nM
T16 construct: purchased DiscoverX KINOMEscan

PAMPA = details: PAMPA
YANK2 = target: T17, YANK2 (Homo sapiens, UniProt Q9NY57); experiment: KINOMEscan; type: binding; details: read-out: %Ctrl @ 10000nM
T17 construct: DNA label for qPCR (T7 phage fusion or DNA tag); purchased DiscoverX scanMAX; host or cells: E. coli BL21-derived (T7 phage) or HEK-293

SRPK3 = target: T18, SRPK3 (Homo sapiens, UniProt Q9UPE1); experiment: KINOMEscan; type: binding; details: read-out: %Ctrl @ 10000nM
T18 construct: purchased DiscoverX KINOMEscan

BRSK2 = target: T19, BRSK2 (Homo sapiens, UniProt Q8IWQ3); experiment: KINOMEscan; type: binding; details: read-out: %Ctrl @ 10000nM
T19 construct: purchased DiscoverX KINOMEscan

BTK = target: T20, BTK (Homo sapiens, UniProt Q06187); experiment: KINOMEscan; type: binding; details: read-out: %Ctrl @ 10000nM
T20 construct: purchased DiscoverX KINOMEscan

MST2 = target: T21, MST2 (Homo sapiens, UniProt Q13188); experiment: KINOMEscan; type: binding; details: read-out: %Ctrl @ 10000nM
T21 construct: purchased DiscoverX KINOMEscan

FGR = target: T22, FGR (Homo sapiens, UniProt P09769); experiment: KINOMEscan; type: binding; details: read-out: %Ctrl @ 10000nM
T22 construct: purchased DiscoverX KINOMEscan

PLK2 = target: T23, PLK2 (Homo sapiens, UniProt Q9NYY3); experiment: KINOMEscan; type: binding; details: read-out: %Ctrl @ 10000nM
T23 construct: purchased DiscoverX KINOMEscan

MKK7 = target: T24, MKK7 (Homo sapiens, UniProt O14733); experiment: KINOMEscan; type: binding; details: read-out: %Ctrl @ 10000nM
T24 construct: purchased DiscoverX KINOMEscan

SGK3 = target: T25, SGK3 (Homo sapiens, UniProt Q96BR1); experiment: KINOMEscan; type: binding; details: read-out: %Ctrl @ 10000nM
T25 construct: purchased DiscoverX KINOMEscan

BMPR2 = target: T26, BMPR2 (Homo sapiens, UniProt Q13873); experiment: KINOMEscan; type: binding; details: read-out: %Ctrl @ 10000nM
T26 construct: purchased DiscoverX KINOMEscan

PAK3 = target: T27, PAK3 (Homo sapiens, UniProt O75914); experiment: KINOMEscan; type: binding; details: read-out: %Ctrl @ 10000nM
T27 construct: purchased DiscoverX KINOMEscan

GRK7 = target: T28, GRK7 (Homo sapiens, UniProt Q8WTQ7); experiment: KINOMEscan; type: binding; details: read-out: %Ctrl @ 10000nM
T28 construct: purchased DiscoverX KINOMEscan

TNNI3K = target: T29, TNNI3K (Homo sapiens, UniProt Q59H18); experiment: KINOMEscan; type: binding; details: read-out: %Ctrl @ 10000nM
T29 construct: purchased DiscoverX KINOMEscan

VPS34 = target: T30, VPS34 (Homo sapiens, UniProt Q8NEB9); experiment: KINOMEscan; type: binding; details: read-out: %Ctrl @ 10000nM
T30 construct: DNA label for qPCR (T7 phage fusion or DNA tag); purchased DiscoverX scanMAX; host or cells: E. coli BL21-derived (T7 phage) or HEK-293

EGFR(L858R,T790M) = target: T31, EGFR(L858R,T790M) (Homo sapiens, UniProt P00533, L858R/T790M); experiment: KINOMEscan; type: binding; details: read-out: %Ctrl @ 10000nM
T31 construct: purchased DiscoverX KINOMEscan

JNK3 = target: T32, JNK3 (Homo sapiens, UniProt P53779); experiment: KINOMEscan; type: binding; details: read-out: %Ctrl @ 10000nM
T32 construct: purchased DiscoverX KINOMEscan

[2] = target: T33, TYK2(JH2domain-pseudokinase) (Homo sapiens, UniProt P29597); experiment: KINOMEscan; type: binding; details: read-out: %Ctrl @ 10000nM
T33 construct: TYK2(JH2domain-pseudokinase); DNA label for qPCR (T7 phage fusion or DNA tag); purchased DiscoverX scanMAX; host or cells: E. coli BL21-derived (T7 phage) or HEK-293

PFTK1 = target: T34, PFTK1 (Homo sapiens, UniProt O94921); experiment: KINOMEscan; type: binding; details: read-out: %Ctrl @ 10000nM
T34 construct: purchased DiscoverX KINOMEscan

ERK2 = target: T35, ERK2 (Homo sapiens, UniProt P28482); experiment: KINOMEscan; type: binding; details: read-out: %Ctrl @ 10000nM
T35 construct: purchased DiscoverX KINOMEscan

LYN = target: T36, LYN (Homo sapiens, UniProt P07948); experiment: KINOMEscan; type: binding; details: read-out: %Ctrl @ 10000nM
T36 construct: purchased DiscoverX KINOMEscan

CDKL5 = target: T37, CDKL5 (Homo sapiens, UniProt O76039); experiment: KINOMEscan; type: binding; details: read-out: %Ctrl @ 10000nM
T37 construct: purchased DiscoverX KINOMEscan

CAMK1D = target: T38, CAMK1D (Homo sapiens, UniProt Q8IU85); experiment: KINOMEscan; type: binding; details: read-out: %Ctrl @ 10000nM
T38 construct: purchased DiscoverX KINOMEscan

T2 sequence (P27448 whole entry): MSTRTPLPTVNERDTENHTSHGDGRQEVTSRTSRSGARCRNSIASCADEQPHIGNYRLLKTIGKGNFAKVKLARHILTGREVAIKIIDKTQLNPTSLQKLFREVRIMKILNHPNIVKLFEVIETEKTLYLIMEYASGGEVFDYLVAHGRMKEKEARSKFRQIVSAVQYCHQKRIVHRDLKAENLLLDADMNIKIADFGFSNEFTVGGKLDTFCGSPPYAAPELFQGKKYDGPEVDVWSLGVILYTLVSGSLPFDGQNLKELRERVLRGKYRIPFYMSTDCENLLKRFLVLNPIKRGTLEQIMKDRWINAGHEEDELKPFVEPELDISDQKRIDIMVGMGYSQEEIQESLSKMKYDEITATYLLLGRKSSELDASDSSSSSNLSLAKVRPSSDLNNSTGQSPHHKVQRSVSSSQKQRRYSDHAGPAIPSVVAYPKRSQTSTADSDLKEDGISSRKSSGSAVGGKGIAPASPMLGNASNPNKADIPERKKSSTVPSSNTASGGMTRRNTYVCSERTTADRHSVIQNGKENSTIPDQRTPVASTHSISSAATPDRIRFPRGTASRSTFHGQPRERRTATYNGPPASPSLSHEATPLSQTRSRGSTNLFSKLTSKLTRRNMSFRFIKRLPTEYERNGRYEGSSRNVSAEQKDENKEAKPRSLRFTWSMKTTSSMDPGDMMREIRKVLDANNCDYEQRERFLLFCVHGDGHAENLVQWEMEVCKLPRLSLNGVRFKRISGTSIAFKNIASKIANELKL
T16 sequence (P10721 26-976 D816H): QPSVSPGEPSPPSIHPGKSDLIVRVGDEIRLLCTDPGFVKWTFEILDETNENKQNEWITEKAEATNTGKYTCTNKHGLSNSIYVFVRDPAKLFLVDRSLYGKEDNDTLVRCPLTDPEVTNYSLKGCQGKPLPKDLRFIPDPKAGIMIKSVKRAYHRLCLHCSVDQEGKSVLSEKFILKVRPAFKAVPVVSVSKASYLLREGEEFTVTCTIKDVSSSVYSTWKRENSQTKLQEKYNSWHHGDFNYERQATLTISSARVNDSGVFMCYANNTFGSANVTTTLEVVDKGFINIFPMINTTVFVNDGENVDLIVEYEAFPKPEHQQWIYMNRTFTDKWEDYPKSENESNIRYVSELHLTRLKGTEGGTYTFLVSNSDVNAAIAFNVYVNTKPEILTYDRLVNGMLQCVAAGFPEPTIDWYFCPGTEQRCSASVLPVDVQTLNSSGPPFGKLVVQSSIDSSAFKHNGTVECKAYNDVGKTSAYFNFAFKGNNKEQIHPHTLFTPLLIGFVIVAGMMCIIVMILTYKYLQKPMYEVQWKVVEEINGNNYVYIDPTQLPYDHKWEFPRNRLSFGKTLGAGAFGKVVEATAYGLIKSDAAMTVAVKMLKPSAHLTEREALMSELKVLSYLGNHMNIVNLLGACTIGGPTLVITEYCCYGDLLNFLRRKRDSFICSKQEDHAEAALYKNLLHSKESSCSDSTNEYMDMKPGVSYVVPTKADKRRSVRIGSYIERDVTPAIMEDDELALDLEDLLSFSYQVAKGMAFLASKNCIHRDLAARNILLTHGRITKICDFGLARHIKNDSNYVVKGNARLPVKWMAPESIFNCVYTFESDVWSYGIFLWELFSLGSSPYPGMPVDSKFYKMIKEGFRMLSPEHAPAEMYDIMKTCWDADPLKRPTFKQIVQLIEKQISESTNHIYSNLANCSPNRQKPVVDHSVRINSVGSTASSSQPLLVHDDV
T34 sequence (O94921 whole entry): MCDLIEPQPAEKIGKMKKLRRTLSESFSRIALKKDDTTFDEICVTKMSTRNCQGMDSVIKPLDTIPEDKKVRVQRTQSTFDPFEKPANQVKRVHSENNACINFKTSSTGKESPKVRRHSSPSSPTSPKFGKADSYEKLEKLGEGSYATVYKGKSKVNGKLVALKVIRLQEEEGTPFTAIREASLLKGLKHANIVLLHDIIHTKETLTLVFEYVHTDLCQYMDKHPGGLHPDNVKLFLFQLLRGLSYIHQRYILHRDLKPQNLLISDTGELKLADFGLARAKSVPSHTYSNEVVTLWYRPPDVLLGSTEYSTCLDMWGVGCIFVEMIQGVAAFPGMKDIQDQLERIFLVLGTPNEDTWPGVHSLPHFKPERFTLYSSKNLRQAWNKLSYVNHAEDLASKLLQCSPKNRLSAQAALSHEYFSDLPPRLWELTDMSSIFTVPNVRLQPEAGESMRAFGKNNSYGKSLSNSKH
T24 sequence (O14733 whole entry): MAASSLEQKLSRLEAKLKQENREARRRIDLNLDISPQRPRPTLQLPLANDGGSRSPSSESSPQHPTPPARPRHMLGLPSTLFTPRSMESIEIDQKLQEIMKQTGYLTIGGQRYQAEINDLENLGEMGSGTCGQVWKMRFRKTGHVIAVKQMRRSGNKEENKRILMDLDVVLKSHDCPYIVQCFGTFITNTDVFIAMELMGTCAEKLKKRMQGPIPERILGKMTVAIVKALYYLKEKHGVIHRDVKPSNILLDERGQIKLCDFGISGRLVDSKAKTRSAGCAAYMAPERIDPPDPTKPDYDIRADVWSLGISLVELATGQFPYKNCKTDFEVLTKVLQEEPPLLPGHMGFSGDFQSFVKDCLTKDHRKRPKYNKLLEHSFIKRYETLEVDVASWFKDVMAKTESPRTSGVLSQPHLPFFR
T20 sequence (Q06187 whole entry): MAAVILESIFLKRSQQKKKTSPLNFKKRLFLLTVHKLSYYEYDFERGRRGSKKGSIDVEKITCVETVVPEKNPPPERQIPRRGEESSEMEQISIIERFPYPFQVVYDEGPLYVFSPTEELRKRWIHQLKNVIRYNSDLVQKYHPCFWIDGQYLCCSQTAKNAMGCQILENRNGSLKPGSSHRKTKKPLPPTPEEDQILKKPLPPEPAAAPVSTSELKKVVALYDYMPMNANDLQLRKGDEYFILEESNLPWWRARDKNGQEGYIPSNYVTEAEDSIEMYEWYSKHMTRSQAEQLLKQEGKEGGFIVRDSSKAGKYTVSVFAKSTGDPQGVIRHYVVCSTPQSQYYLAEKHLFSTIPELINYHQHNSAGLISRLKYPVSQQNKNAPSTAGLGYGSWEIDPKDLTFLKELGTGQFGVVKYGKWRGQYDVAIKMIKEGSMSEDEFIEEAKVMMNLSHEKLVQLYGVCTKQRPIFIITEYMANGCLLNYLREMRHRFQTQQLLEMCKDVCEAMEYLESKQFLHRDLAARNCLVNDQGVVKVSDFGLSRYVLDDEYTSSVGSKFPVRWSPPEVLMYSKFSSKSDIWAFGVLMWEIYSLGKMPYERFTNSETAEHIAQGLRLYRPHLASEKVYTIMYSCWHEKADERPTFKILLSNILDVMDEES
T12 sequence (P07949 29-1114 V804L): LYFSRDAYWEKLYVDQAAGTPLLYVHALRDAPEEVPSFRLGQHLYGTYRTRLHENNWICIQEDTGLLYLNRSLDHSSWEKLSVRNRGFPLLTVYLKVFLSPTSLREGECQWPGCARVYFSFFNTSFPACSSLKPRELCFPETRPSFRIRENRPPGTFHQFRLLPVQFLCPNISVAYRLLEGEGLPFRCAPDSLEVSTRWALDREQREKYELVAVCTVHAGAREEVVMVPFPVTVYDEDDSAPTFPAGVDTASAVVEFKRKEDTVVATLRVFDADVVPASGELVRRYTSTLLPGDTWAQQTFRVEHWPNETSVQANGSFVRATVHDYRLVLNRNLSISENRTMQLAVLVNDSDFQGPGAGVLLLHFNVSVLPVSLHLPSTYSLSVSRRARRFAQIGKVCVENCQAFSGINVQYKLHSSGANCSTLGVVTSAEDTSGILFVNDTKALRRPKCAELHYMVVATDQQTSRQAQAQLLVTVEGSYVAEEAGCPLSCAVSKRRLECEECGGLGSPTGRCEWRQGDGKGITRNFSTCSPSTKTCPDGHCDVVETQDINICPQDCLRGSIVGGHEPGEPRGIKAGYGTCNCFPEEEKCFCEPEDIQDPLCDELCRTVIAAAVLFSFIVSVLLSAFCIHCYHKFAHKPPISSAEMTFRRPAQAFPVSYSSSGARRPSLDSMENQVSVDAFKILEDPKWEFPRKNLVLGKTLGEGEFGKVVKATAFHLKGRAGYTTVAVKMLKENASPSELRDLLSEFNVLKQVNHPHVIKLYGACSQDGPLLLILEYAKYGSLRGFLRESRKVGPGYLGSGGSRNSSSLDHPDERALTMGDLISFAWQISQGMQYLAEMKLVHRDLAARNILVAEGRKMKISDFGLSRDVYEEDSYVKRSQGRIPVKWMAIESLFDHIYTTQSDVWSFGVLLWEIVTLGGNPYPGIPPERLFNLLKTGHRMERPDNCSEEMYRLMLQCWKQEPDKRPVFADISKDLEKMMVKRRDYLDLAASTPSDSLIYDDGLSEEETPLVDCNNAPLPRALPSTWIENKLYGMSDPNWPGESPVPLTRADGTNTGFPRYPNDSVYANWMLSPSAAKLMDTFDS
T4 sequence (Q86UX6 whole entry): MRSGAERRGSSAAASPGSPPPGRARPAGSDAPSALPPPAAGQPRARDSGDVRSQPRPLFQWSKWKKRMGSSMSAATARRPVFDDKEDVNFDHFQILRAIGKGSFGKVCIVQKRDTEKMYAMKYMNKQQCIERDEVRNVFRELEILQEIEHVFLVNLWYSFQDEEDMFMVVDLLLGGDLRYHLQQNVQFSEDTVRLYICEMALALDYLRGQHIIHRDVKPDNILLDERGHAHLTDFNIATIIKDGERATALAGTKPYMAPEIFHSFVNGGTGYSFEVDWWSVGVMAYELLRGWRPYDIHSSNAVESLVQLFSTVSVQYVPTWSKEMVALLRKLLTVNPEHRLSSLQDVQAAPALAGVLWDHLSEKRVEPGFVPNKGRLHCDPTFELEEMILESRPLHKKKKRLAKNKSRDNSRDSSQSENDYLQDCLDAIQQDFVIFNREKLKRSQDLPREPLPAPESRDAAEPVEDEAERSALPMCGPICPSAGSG

SMILES: CC(C)c1ccc(CC(=O)N2CCN(c3ccc(C#N)nn3)CC2)cc1 [PZ-2891, 6-(4-(2-(4-isopropylphenyl)acetyl)piperazin-1-yl)pyridazine-3-carbonitrile]
- remaining binding at 10 µM (BMPR1A): 100%
- remaining binding at 10 µM (MARK3): 84%
- remaining binding at 10 µM [1]: 96%
- remaining binding at 10 µM (YANK3): 84%
- remaining binding at 10 µM (PKAC-alpha): 87%
- remaining binding at 10 µM (EGFR(G719C)): 100%
- remaining binding at 10 µM (IKK-beta): 100%
- remaining binding at 10 µM (MELK): 75%
- remaining binding at 10 µM (FLT3(R834Q)): 100%
- remaining binding at 10 µM (EGFR): 78%
- remaining binding at 10 µM (TAK1): 67%
- remaining binding at 10 µM (RET(V804L)): 96%
- remaining binding at 10 µM (FES): 94%
- remaining binding at 10 µM (ROCK1): 100%
- remaining binding at 10 µM (ERK1): 91%
- remaining binding at 10 µM (KIT(D816H)): 66%
- PAMPA; Avg Pe (PAMPA): 413 10-6 cm/s
- remaining binding at 10 µM (YANK2): 100%
- remaining binding at 10 µM (SRPK3): 67%
- remaining binding at 10 µM (BRSK2): 81%
- remaining binding at 10 µM (BTK): 94%
- remaining binding at 10 µM (MST2): 92%
- remaining binding at 10 µM (FGR): 96%
- remaining binding at 10 µM (PLK2): 84%
- remaining binding at 10 µM (MKK7): 84%
- remaining binding at 10 µM (SGK3): 71%
- remaining binding at 10 µM (BMPR2): 87%
- remaining binding at 10 µM (PAK3): 88%
- remaining binding at 10 µM (GRK7): 93%
- remaining binding at 10 µM (TNNI3K): 76%
- remaining binding at 10 µM (VPS34): 80%
- remaining binding at 10 µM (EGFR(L858R,T790M)): 98%
- remaining binding at 10 µM (JNK3): 88%
- remaining binding at 10 µM [2]: 100%
- remaining binding at 10 µM (PFTK1): 92%
- remaining binding at 10 µM (ERK2): 86%
- remaining binding at 10 µM (LYN): 79%
- remaining binding at 10 µM (CDKL5): 67%
- remaining binding at 10 µM (CAMK1D): 95%
